According to publication PMC5797143, “Epigenetic modulation of inflammation and synaptic plasticity promotes resilience against stress in mice” (Nature Communications, 2018):

Experiments:
Assay in all cases: Radioligand binding assay
[1] = molecular target: T1, 5-HT1B (serotonin receptor) (Homo sapiens, UniProt P28222); conditions: 10 µM; HEK membrane fractions; quadruplicate
T1 construct: purchased NIMH Psychoactive Drug Screening Program (PDSP)
Description: (§1) Radioligand binding assays were performed as previously described. Briefly, crude membrane fractions prepared from a stable HEK cell line expressing recombinant receptors were mixed with a radiolabeled specific ligand and 10 µM of competitor compound (DHCA, Mal-gluc, or non-specific ligand). The percentage of radioligand binding was subsequently measured.

[2] = molecular target: T2, 5-HT1D (serotonin receptor) (Homo sapiens, UniProt P28221); conditions: for Binding activity, 5-HT1D (percentage): 10 µM, HEK membrane fractions, quadruplicate
T2 construct: expressed in transfected cells; crude membrane fractions
Description: as §1

[3] = molecular target: T3, 5-HT2B (serotonin receptor) (Homo sapiens, UniProt P41595); conditions: 10 µM; HEK membrane fractions; quadruplicate
T3 construct: purchased NIMH Psychoactive Drug Screening Program (PDSP)
Description: as §1

[4] = molecular target: T4, 5-HT2C (serotonin receptor) (Homo sapiens, UniProt P28335); conditions: 10 µM; HEK membrane fractions; quadruplicate
T4 construct: purchased NIMH Psychoactive Drug Screening Program (PDSP)
Description: as §1

[5] = molecular target: T5, 5-HT3 (serotonin receptor) (Homo sapiens, UniProt P46098); conditions: for Binding activity, 5-HT3 (percentage): 10 µM, HEK membrane fractions, quadruplicate
T5 construct: expressed in transfected cells; crude membrane fractions
T5 sequence (P46098 24-478): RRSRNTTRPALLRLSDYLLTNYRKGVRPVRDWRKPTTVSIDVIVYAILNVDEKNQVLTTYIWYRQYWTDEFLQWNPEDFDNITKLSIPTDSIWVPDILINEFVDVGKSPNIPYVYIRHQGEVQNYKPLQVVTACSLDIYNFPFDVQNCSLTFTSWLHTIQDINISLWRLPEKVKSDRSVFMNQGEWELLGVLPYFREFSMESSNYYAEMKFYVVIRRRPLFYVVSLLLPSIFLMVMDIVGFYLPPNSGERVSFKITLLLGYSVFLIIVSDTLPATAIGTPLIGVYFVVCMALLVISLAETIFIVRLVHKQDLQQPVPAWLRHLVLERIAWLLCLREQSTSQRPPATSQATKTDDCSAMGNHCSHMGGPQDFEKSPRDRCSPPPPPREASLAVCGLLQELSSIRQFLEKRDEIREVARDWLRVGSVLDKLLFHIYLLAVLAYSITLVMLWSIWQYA
Description: as §1

[6] = molecular target: T6, 5-hT1e (serotonin receptor) (Homo sapiens, UniProt P28566); conditions: 10 µM; HEK membrane fractions; quadruplicate
T6 construct: purchased NIMH Psychoactive Drug Screening Program (PDSP)
Description: as §1

[7] = molecular target: T7, 5-hT5a (serotonin receptor) (Homo sapiens, UniProt P47898); conditions: 10 µM; HEK membrane fractions; quadruplicate
T7 construct: purchased NIMH Psychoactive Drug Screening Program (PDSP)
Description: as §1

[8] = molecular target: T8, Alpha1A (alpha adrenergic receptor) (Homo sapiens, UniProt P35348); conditions: 10 µM; HEK membrane fractions; quadruplicate
T8 construct: purchased NIMH Psychoactive Drug Screening Program (PDSP)
Description: as §1

[9] = molecular target: T9, Alpha1D (alpha adrenergic receptor) (Homo sapiens, UniProt P25100); conditions: 10 µM; HEK membrane fractions; quadruplicate
T9 construct: purchased NIMH Psychoactive Drug Screening Program (PDSP)
Description: as §1

[10] = molecular target: T10, Alpha2A (alpha adrenergic receptor) (Homo sapiens, UniProt P08913); conditions: 10 µM; HEK membrane fractions; quadruplicate
T10 construct: purchased NIMH Psychoactive Drug Screening Program (PDSP)
Description: as §1

[11] = molecular target: T11, Alpha2B (alpha adrenergic receptor) (Homo sapiens, UniProt P18089); conditions: 10 µM; HEK membrane fractions; quadruplicate
T11 construct: purchased NIMH Psychoactive Drug Screening Program (PDSP)
Description: as §1

[12] = system: BZP RBS (rat brain benzylpiperazine site); conditions: 10 µM; quadruplicate
Description: as §1

[13] = molecular target: T12, Beta1 (beta adrenergic receptor) (Homo sapiens, UniProt P08588); conditions: 10 µM; HEK membrane fractions; quadruplicate
T12 construct: purchased NIMH Psychoactive Drug Screening Program (PDSP)
Description: as §1

[14] = molecular target: T13, Beta2 (beta adrenergic receptor) (Homo sapiens, UniProt P07550); conditions: 10 µM; HEK membrane fractions; quadruplicate
T13 construct: purchased NIMH Psychoactive Drug Screening Program (PDSP)
Description: as §1

[15] = molecular target: T14, Beta3 (beta adrenergic receptor) (Homo sapiens, UniProt P13945); conditions: 10 µM; HEK membrane fractions; quadruplicate
T14 construct: purchased NIMH Psychoactive Drug Screening Program (PDSP)
Description: as §1

D2 (dopamine receptor) = molecular target: T15, D2 (dopamine receptor) (Homo sapiens, UniProt P14416); conditions: 10 µM; HEK membrane fractions; quadruplicate
T15 construct: purchased NIMH Psychoactive Drug Screening Program (PDSP)
Description: as §1

D3 (dopamine receptor) = molecular target: T16, D3 (dopamine receptor) (Homo sapiens, UniProt P35462); conditions: 10 µM; HEK membrane fractions; quadruplicate
T16 construct: purchased NIMH Psychoactive Drug Screening Program (PDSP)
Description: as §1

D4 (dopamine receptor) = molecular target: T17, D4 (dopamine receptor) (Homo sapiens, UniProt P21917); conditions: 10 µM; HEK membrane fractions; quadruplicate
T17 construct: purchased NIMH Psychoactive Drug Screening Program (PDSP)
Description: as §1

[16] = molecular target: T18, DAT (dopamine transporter) (Homo sapiens, UniProt Q01959); conditions: 10 µM; HEK membrane fractions; quadruplicate
T18 construct: purchased NIMH Psychoactive Drug Screening Program (PDSP)
Description: as §1

DOR (δ-opioid receptor) = molecular target: T19, DOR (δ-opioid receptor) (Homo sapiens, UniProt P41143); conditions: 10 µM; HEK membrane fractions; quadruplicate
T19 construct: purchased NIMH Psychoactive Drug Screening Program (PDSP)
Description: as §1

M1 (muscarinic receptor) = molecular target: T20, M1 (muscarinic receptor) (Homo sapiens, UniProt P11229); conditions: 10 µM; HEK membrane fractions; quadruplicate
T20 construct: purchased NIMH Psychoactive Drug Screening Program (PDSP)
Description: as §1

M2 (muscarinic receptor) = molecular target: T21, M2 (muscarinic receptor) (Homo sapiens, UniProt P08172); conditions: 10 µM; HEK membrane fractions; quadruplicate
T21 construct: purchased NIMH Psychoactive Drug Screening Program (PDSP)
Description: as §1

M3 (muscarinic receptor) = molecular target: T22, M3 (muscarinic receptor) (Homo sapiens, UniProt P20309); conditions: 10 µM; HEK membrane fractions; quadruplicate
T22 construct: purchased NIMH Psychoactive Drug Screening Program (PDSP)
Description: as §1

M4 (muscarinic receptor) = molecular target: T23, M4 (muscarinic receptor) (Homo sapiens, UniProt P08173); conditions: 10 µM; HEK membrane fractions; quadruplicate
T23 construct: purchased NIMH Psychoactive Drug Screening Program (PDSP)
Description: as §1

M5 (muscarinic receptor) = molecular target: T24, M5 (muscarinic receptor) (Homo sapiens, UniProt P08912); conditions: 10 µM; HEK membrane fractions; quadruplicate
T24 construct: purchased NIMH Psychoactive Drug Screening Program (PDSP)
Description: as §1

MOR (µ-opioid receptor) = molecular target: T25, MOR (µ-opioid receptor) (Homo sapiens, UniProt P35372); conditions: 10 µM; HEK membrane fractions; quadruplicate
T25 construct: purchased NIMH Psychoactive Drug Screening Program (PDSP)
Description: as §1

[17] = system: PBR (peripheral benzodiazepine receptor); conditions: 10 µM; HEK membrane fractions; quadruplicate
Description: as §1

[18] = molecular target: T26, SERT (serotonin transporter) (Homo sapiens, UniProt P31645); conditions: 10 µM; HEK membrane fractions; quadruplicate
T26 construct: purchased NIMH Psychoactive Drug Screening Program (PDSP)
Description: as §1

T2 sequence (P28221 whole entry, species assumed): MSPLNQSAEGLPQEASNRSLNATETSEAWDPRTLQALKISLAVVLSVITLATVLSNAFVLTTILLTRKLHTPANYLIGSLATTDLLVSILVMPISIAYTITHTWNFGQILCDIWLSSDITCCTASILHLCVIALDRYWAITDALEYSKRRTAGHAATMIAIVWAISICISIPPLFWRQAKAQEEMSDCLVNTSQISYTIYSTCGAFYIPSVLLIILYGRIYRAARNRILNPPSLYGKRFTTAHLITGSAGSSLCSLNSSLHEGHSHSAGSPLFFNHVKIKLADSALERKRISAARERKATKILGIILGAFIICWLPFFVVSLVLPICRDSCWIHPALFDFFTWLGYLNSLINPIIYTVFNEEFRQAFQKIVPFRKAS
T18 sequence (Q01959 whole entry): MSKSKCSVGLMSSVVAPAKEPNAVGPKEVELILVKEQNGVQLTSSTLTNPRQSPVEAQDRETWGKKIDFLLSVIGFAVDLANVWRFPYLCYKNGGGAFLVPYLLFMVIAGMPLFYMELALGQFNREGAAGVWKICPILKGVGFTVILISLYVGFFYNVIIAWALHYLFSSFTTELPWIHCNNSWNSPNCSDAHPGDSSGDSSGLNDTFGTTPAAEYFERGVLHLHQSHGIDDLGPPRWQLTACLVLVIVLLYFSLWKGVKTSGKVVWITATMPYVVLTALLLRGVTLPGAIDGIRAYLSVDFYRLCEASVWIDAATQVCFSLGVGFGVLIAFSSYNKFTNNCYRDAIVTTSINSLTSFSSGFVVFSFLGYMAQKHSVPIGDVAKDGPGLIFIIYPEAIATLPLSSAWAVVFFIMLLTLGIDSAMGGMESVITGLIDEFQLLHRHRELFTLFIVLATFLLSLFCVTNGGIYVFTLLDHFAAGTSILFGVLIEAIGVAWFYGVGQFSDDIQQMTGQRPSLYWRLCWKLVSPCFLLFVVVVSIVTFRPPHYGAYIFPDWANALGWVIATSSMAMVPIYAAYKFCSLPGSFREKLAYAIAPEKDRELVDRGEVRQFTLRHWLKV
T7 sequence (P47898 whole entry): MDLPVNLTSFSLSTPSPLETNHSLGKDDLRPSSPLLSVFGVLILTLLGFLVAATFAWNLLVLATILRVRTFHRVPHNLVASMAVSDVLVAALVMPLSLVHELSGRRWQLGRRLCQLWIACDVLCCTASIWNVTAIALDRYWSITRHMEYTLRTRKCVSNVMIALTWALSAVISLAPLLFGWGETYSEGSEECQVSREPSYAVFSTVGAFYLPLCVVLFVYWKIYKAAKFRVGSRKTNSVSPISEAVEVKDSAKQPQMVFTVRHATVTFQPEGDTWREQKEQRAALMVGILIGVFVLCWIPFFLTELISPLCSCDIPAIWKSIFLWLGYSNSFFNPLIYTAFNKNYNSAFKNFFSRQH
T15 sequence (P14416 whole entry): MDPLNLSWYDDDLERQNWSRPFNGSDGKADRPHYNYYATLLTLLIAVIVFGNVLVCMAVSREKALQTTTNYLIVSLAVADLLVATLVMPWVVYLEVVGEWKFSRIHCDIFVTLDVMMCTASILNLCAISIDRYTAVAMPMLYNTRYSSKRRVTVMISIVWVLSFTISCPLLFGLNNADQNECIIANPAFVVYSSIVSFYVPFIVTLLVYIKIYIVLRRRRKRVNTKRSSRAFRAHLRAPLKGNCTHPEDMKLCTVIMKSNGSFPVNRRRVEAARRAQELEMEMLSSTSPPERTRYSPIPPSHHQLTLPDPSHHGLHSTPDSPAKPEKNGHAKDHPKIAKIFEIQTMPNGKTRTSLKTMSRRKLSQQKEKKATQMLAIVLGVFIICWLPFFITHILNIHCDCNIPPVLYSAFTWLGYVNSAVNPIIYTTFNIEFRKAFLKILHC
T1 sequence (P28222 whole entry): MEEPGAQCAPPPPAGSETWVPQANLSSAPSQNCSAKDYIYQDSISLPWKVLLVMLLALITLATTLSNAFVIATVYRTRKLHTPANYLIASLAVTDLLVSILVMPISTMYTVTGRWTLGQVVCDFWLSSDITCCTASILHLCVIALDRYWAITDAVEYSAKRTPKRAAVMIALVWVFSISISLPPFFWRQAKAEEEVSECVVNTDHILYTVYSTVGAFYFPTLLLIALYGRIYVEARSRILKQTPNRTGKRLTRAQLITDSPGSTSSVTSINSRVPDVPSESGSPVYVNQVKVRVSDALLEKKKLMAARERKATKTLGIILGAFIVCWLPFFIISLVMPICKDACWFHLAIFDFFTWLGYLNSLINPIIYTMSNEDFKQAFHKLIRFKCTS
T4 sequence (P28335 33-458): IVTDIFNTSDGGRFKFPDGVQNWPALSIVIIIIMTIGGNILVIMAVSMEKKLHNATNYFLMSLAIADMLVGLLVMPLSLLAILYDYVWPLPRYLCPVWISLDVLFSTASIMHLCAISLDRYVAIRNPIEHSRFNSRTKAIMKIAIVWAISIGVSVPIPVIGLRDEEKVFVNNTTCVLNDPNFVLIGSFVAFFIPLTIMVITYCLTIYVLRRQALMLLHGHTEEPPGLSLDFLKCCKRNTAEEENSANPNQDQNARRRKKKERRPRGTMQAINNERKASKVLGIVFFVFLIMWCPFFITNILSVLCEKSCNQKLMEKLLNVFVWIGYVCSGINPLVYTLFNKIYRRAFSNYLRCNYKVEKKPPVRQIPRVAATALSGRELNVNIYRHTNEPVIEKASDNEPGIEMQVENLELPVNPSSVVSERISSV
T26 sequence (P31645 whole entry): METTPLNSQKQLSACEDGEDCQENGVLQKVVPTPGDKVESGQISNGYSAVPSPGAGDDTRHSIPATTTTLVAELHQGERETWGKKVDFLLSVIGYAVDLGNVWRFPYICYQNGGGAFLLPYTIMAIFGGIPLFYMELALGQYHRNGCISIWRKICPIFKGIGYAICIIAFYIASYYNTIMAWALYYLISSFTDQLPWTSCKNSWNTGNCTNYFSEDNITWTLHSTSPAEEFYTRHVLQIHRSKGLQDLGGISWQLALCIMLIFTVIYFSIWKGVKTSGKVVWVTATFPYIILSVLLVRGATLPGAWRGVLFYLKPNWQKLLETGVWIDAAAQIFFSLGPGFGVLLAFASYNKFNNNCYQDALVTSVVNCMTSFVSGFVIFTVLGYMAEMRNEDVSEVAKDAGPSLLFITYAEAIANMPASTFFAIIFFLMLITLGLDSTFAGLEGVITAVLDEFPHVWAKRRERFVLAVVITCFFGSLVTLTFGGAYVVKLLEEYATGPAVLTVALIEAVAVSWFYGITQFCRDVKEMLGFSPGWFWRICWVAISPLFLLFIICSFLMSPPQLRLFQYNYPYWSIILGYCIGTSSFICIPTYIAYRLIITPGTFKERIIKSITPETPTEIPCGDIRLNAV
T19 sequence (P41143 whole entry): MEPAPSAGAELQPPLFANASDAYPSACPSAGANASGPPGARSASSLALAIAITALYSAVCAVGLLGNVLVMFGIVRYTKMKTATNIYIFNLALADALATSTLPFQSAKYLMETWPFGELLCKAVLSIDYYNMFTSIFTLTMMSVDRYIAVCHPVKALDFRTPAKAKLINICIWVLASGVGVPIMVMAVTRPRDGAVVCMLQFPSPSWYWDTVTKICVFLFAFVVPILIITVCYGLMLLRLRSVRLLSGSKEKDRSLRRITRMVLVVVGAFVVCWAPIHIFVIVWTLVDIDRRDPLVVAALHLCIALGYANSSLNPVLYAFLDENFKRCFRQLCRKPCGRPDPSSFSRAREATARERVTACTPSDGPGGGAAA
T16 sequence (P35462 whole entry): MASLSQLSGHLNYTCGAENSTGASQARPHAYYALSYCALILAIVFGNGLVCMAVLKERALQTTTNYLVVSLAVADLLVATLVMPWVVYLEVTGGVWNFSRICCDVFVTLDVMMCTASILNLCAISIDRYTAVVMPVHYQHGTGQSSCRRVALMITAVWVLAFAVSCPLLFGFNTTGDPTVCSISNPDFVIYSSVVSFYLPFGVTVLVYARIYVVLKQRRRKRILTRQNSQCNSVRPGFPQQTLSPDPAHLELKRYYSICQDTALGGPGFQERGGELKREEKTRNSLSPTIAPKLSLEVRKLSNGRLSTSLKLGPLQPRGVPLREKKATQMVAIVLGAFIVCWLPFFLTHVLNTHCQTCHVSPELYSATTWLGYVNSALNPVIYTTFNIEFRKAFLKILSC
T8 sequence (P35348 whole entry): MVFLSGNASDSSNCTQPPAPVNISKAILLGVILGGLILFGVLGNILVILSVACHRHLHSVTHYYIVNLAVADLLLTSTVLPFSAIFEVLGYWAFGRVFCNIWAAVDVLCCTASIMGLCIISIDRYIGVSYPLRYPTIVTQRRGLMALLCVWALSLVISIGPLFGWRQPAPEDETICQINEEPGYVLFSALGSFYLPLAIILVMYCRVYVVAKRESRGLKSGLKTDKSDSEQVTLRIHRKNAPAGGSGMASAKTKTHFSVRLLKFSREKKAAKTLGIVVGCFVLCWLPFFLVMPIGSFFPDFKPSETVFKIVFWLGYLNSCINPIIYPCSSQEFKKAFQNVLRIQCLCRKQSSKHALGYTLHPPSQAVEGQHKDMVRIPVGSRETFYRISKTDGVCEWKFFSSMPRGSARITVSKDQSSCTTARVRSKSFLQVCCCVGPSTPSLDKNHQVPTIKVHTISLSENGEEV
T25 sequence (P35372 whole entry): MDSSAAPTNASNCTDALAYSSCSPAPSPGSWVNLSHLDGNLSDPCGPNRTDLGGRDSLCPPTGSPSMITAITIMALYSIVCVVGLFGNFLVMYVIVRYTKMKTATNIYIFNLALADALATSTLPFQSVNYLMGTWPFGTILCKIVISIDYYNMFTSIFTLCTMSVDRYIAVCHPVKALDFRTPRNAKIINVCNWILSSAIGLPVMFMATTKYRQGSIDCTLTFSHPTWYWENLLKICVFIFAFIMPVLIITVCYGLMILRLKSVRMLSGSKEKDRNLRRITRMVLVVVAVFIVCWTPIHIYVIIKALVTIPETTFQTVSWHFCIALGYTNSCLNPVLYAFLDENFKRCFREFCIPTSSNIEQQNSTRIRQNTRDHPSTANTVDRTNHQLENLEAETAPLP

Compound	Binding activity, 5-HT1B (percentage) [1] [%]	Binding activity, 5-HT1D (percentage) [2] [%]	Binding activity, 5-HT2B (percentage) [3] [%]	Binding activity, 5-HT2C (percentage) [4] [%]	Binding activity, 5-HT3 (percentage) [5] [%]	Binding activity, 5-hT1e (percentage) [6] [%]	Binding activity, 5-hT5a (percentage) [7] [%]	Binding activity, Alpha1A (percentage) [8] [%]	Binding activity, Alpha1D (percentage) [9] [%]	Binding activity, Alpha2A (percentage) [10] [%]	Binding activity, Alpha2B (percentage) [11] [%]	Binding activity, BZP RBS (percentage) [12] [%]	Binding activity, Beta1 (percentage) [13] [%]	Binding activity, Beta2 (percentage) [14] [%]	Binding activity, Beta3 (percentage) [15] [%]	Binding activity, D2 (percentage) (D2 (dopamine receptor)) [%]	Binding activity, D3 (percentage) (D3 (dopamine receptor)) [%]	Binding activity, D4 (percentage) (D4 (dopamine receptor)) [%]	Binding activity, DAT (percentage) [16] [%]	Binding activity, DOR (percentage) (DOR (δ-opioid receptor)) [%]	further results
O=C(O)CCc1ccc(O)c(O)c1 [DHCA, 3(3,4-dihydroxy-phenyl) propionic acid]	−11.8	11.7	−7	−9.9	−11.7	−1.7	4.2	4	−15.4	15.7	−2.3	−5.2	−14.1	−7.6	−15.8	−5.7	−18.8	1.9	34.5	9.5	Binding activity, M1 (percentage) (M1 (muscarinic receptor)): −1.8%; Binding activity, M2 (percentage) (M2 (muscarinic receptor)): −12.2%; Binding activity, M3 (percentage) (M3 (muscarinic receptor)): 9.4%; Binding activity, M4 (percentage) (M4 (muscarinic receptor)): 3%; Binding activity, M5 (percentage) (M5 (muscarinic receptor)): 21.2%; Binding activity, MOR (percentage) (MOR (µ-opioid receptor)): −7.1%; Binding activity, PBR (percentage) [17]: −13.3%; Binding activity, SERT (percentage) [18]: −0.9%
COc1cc(-c2[o+]c3cc(O)cc(O)c3cc2O[C@@H]2O[C@H](CO)[C@@H](O)[C@H](O)[C@H]2O)cc(OC)c1O [Mal-gluc]	10.4	54	−13.8	−6.9	74.1	10.3	5.2	−4.5	−1.3	7.3	−5.9	5.4	−15.5	1.9	−17.7	7.2	7.2	−2	−18.2	−10.2	Ki ([2]; secondary radioligand binding assay, read-out: calculated inhibitory constant (Ki), 5-HT1D): > 10 µM; Ki ([5]; secondary radioligand binding assay, read-out: calculated inhibitory constant (Ki), 5-HT3): 4.3 µM; Binding activity, M1 (percentage) (M1 (muscarinic receptor)): −6.2%; Binding activity, M2 (percentage) (M2 (muscarinic receptor)): 5.2%; Binding activity, M3 (percentage) (M3 (muscarinic receptor)): 23.6%; Binding activity, M4 (percentage) (M4 (muscarinic receptor)): −4.6%; Binding activity, M5 (percentage) (M5 (muscarinic receptor)): −10.2%; Binding activity, MOR (percentage) (MOR (µ-opioid receptor)): −5%; Binding activity, PBR (percentage) [17]: 15.7%; Binding activity, SERT (percentage) [18]: 7.8%
